In the NIST ThermoML archive (doi:10.1021/acs.jced.8b00537):
Numbers after ± are expanded uncertainties.

Assay: xn = mol fraction of the nth substance listed
Details: 100 kPa, Liquid; for viscosity: Capillary tube (Ostwald / Ubbelohde) method; for speed of sound: Frequency=3 MHz, Single path-length method; for mass density: Vibrating tube method

O=S(=O)([N-]S(=O)(=O)C(F)(F)F)C(F)(F)F.On1cc[n+](O)c1 [1,3-dihydroxyimidazolium bis(trifluoromethylsulfonyl)imide] + CCCO
Details	mass density [kg/m3]	speed of sound [m/s]	viscosity [mPa·s]
293.15 K, x1 = 0.0999	1039 ± 2	1192.5 ± 6	6.428 ± 0.52
293.15 K, x1 = 0.1994	1207 ± 3	1175.2 ± 6	10.56 ± 0.85
293.15 K, x1 = 0.2993	1333 ± 3	1166.5 ± 6	18.74 ± 1.5
293.15 K, x1 = 0.3992	1430 ± 3	1167 ± 6.1	31.05 ± 2.5
293.15 K, x1 = 0.4985	1510 ± 3	1170.2 ± 6.1	46.71 ± 3.8
293.15 K, x1 = 0.5999	1576 ± 3	1175.3 ± 6.1	65.75 ± 5.3
293.15 K, x1 = 0.6989	1631 ± 4	1182.6 ± 6.2	99.34 ± 8.1
293.15 K, x1 = 0.7996	1680 ± 4	1190.1 ± 6.2	120.22 ± 9.8
293.15 K, x1 = 0.8973	1719 ± 4	1198.4 ± 6.3	184.26 ± 15
293.15 K, x1 = 1	1746 ± 4	1208.2 ± 6.3	238.6 ± 20
298.15 K, x1 = 0.0999	1034 ± 2	1177.8 ± 6	5.606 ± 0.45
298.15 K, x1 = 0.1994	1202 ± 3	1161.9 ± 6	9.087 ± 0.73
298.15 K, x1 = 0.2993	1328 ± 3	1154 ± 6	15.55 ± 1.2
298.15 K, x1 = 0.3992	1425 ± 3	1155 ± 6.1	25.3 ± 2
298.15 K, x1 = 0.4985	1505 ± 3	1158.3 ± 6.1	37.27 ± 3
298.15 K, x1 = 0.5999	1570 ± 3	1163.5 ± 6.1	51.4 ± 4.1
298.15 K, x1 = 0.6989	1625 ± 4	1171 ± 6.2	76.1 ± 6.1
298.15 K, x1 = 0.7996	1674 ± 4	1178.4 ± 6.2	90.44 ± 7.3
298.15 K, x1 = 0.8973	1713 ± 4	1186.7 ± 6.3	135.12 ± 11
298.15 K, x1 = 1	1740 ± 4	1196.6 ± 6.3	171.83 ± 14
303.15 K, x1 = 0.0999	1030 ± 2	1163.2 ± 6	4.921 ± 0.4
303.15 K, x1 = 0.1994	1197 ± 3	1148.7 ± 6	7.864 ± 0.63
303.15 K, x1 = 0.2993	1323 ± 3	1141.6 ± 6	13.07 ± 1
303.15 K, x1 = 0.3992	1419 ± 3	1143.1 ± 6.1	20.93 ± 1.7
303.15 K, x1 = 0.4985	1499 ± 3	1146.7 ± 6.1	30.21 ± 2.4
303.15 K, x1 = 0.5999	1564 ± 3	1152 ± 6.1	40.94 ± 3.3
303.15 K, x1 = 0.6989	1620 ± 4	1159.5 ± 6.2	59.33 ± 4.8
303.15 K, x1 = 0.7996	1668 ± 4	1166.9 ± 6.2	–
303.15 K, x1 = 0.8973	1707 ± 4	1175.2 ± 6.3	101.71 ± 8.3
303.15 K, x1 = 1	1735 ± 4	1185.2 ± 6.3	127.52 ± 10
308.15 K, x1 = 0.0999	1025 ± 2	1148.9 ± 6	4.34 ± 0.35
308.15 K, x1 = 0.1994	1192 ± 3	1135.7 ± 6	6.844 ± 0.55
308.15 K, x1 = 0.2993	1318 ± 3	1129.4 ± 6	11.09 ± 0.89
308.15 K, x1 = 0.3992	1414 ± 3	1131.4 ± 6.1	17.59 ± 1.4
308.15 K, x1 = 0.4985	1494 ± 3	1135.2 ± 6.1	24.91 ± 2
308.15 K, x1 = 0.5999	1559 ± 3	1140.7 ± 6.1	33.19 ± 2.7
308.15 K, x1 = 0.6989	1614 ± 4	1148.3 ± 6.2	47.17 ± 3.8
308.15 K, x1 = 0.7996	1662 ± 4	1155.7 ± 6.2	54.77 ± 4.4
308.15 K, x1 = 0.8973	1702 ± 4	1164 ± 6.3	78.32 ± 6.3
308.15 K, x1 = 1	1729 ± 4	1174.1 ± 6.3	96.92 ± 7.9
313.15 K, x1 = 0.0999	1020 ± 2	1134.6 ± 6	3.849 ± 0.31
313.15 K, x1 = 0.1994	1187 ± 3	1122.8 ± 6	5.991 ± 0.48
313.15 K, x1 = 0.2993	1313 ± 3	1117.3 ± 6	9.541 ± 0.76
313.15 K, x1 = 0.3992	1409 ± 3	1119.8 ± 6.1	14.92 ± 1.2
313.15 K, x1 = 0.4985	1489 ± 3	1123.9 ± 6.1	20.85 ± 1.7
313.15 K, x1 = 0.5999	1553 ± 3	1129.5 ± 6.1	27.38 ± 2.2
313.15 K, x1 = 0.6989	1608 ± 3	1137.2 ± 6.2	37.93 ± 3.1
313.15 K, x1 = 0.7996	1657 ± 4	1144.6 ± 6.2	43.92 ± 3.5
313.15 K, x1 = 0.8973	1696 ± 4	1153 ± 6.3	61.38 ± 4.9
313.15 K, x1 = 1	1723 ± 4	1163.1 ± 6.3	75.56 ± 6.1
318.15 K, x1 = 0.0999	1016 ± 2	1120.5 ± 6	3.434 ± 0.28
318.15 K, x1 = 0.1994	1182 ± 3	1110.1 ± 6	5.275 ± 0.42
318.15 K, x1 = 0.2993	1308 ± 3	1105.4 ± 6	8.279 ± 0.66
318.15 K, x1 = 0.3992	1404 ± 3	1108.3 ± 6.1	12.81 ± 1
318.15 K, x1 = 0.4985	1483 ± 3	1112.7 ± 6.1	17.64 ± 1.4
318.15 K, x1 = 0.5999	1548 ± 3	1118.5 ± 6.1	22.86 ± 1.8
318.15 K, x1 = 0.6989	1603 ± 3	1126.3 ± 6.2	31.31 ± 2.5
318.15 K, x1 = 0.7996	1651 ± 4	1133.7 ± 6.2	35.76 ± 2.9
318.15 K, x1 = 0.8973	1690 ± 4	1142.1 ± 6.3	49.13 ± 4
318.15 K, x1 = 1	1717 ± 4	1152.3 ± 6.3	59.8 ± 4.8
323.15 K, x1 = 0.0999	1011 ± 2	1106.4 ± 6	3.072 ± 0.25
323.15 K, x1 = 0.1994	1178 ± 2	1097.4 ± 6	4.675 ± 0.38
323.15 K, x1 = 0.2993	1303 ± 3	1093.6 ± 6	7.234 ± 0.58
323.15 K, x1 = 0.3992	1398 ± 3	1097 ± 6.1	11.09 ± 0.89
323.15 K, x1 = 0.4985	1478 ± 3	1101.6 ± 6.1	15.11 ± 1.2
323.15 K, x1 = 0.5999	1542 ± 3	1107.6 ± 6.1	19.34 ± 1.6
323.15 K, x1 = 0.6989	1597 ± 3	1115.5 ± 6.2	25.89 ± 2.1
323.15 K, x1 = 0.7996	1645 ± 4	1123 ± 6.2	29.52 ± 2.4
323.15 K, x1 = 0.8973	1684 ± 4	1131.4 ± 6.3	39.97 ± 3.2
323.15 K, x1 = 1	1711 ± 4	1141.6 ± 6.3	48.29 ± 3.9
328.15 K, x1 = 0.0999	1006 ± 2	1092.4 ± 6	2.759 ± 0.22
328.15 K, x1 = 0.1994	1173 ± 2	1084.9 ± 6	4.171 ± 0.34
328.15 K, x1 = 0.2993	1298 ± 3	1082 ± 6	6.368 ± 0.51
328.15 K, x1 = 0.3992	1393 ± 3	1085.8 ± 6.1	9.679 ± 0.78
328.15 K, x1 = 0.4985	1472 ± 3	1090.7 ± 6.1	13.05 ± 1
328.15 K, x1 = 0.5999	1537 ± 3	1096.8 ± 6.1	16.53 ± 1.3
328.15 K, x1 = 0.6989	1592 ± 3	1104.8 ± 6.2	21.88 ± 1.8
328.15 K, x1 = 0.7996	1640 ± 4	1112.3 ± 6.2	24.73 ± 2
328.15 K, x1 = 0.8973	1679 ± 4	1120.8 ± 6.3	32.99 ± 2.7
328.15 K, x1 = 1	1705 ± 4	1131.1 ± 6.3	39.57 ± 3.2
333.15 K, x1 = 0.0999	1002 ± 2	1078.5 ± 6	2.491 ± 0.2
333.15 K, x1 = 0.1994	1168 ± 2	1072.4 ± 6	3.742 ± 0.3
333.15 K, x1 = 0.2993	1293 ± 3	1070.4 ± 6	5.644 ± 0.45
333.15 K, x1 = 0.3992	1388 ± 3	1074.7 ± 6.1	8.509 ± 0.68
333.15 K, x1 = 0.4985	1467 ± 3	1080 ± 6.1	11.37 ± 0.91
333.15 K, x1 = 0.5999	1532 ± 3	1086.1 ± 6.1	14.29 ± 1.1
333.15 K, x1 = 0.6989	1586 ± 3	1094.2 ± 6.2	18.68 ± 1.5
333.15 K, x1 = 0.7996	1634 ± 4	1101.8 ± 6.2	20.94 ± 1.7
333.15 K, x1 = 0.8973	1673 ± 4	1110.3 ± 6.3	27.57 ± 2.2
333.15 K, x1 = 1	1700 ± 4	1120.7 ± 6.3	32.88 ± 2.7
338.15 K, x1 = 0.0999	997 ± 2	1064.5 ± 6	2.255 ± 0.18
338.15 K, x1 = 0.1994	1163 ± 2	1060.1 ± 6	3.375 ± 0.27
338.15 K, x1 = 0.2993	1288 ± 3	1059 ± 6	5.034 ± 0.4
338.15 K, x1 = 0.3992	1383 ± 3	1063.7 ± 6.1	7.522 ± 0.6
338.15 K, x1 = 0.4985	1462 ± 3	1069.3 ± 6.1	9.989 ± 0.8
338.15 K, x1 = 0.5999	1526 ± 3	1075.6 ± 6.1	12.46 ± 1
338.15 K, x1 = 0.6989	1581 ± 3	1083.8 ± 6.2	16.12 ± 1.3
338.15 K, x1 = 0.7996	1628 ± 4	1091.5 ± 6.2	17.87 ± 1.4
338.15 K, x1 = 0.8973	1667 ± 4	1100 ± 6.3	23.34 ± 1.9
338.15 K, x1 = 1	1694 ± 4	1110.4 ± 6.3	27.69 ± 2.2
343.15 K, x1 = 0.0999	992 ± 2	1050.7 ± 6	2.051 ± 0.17
343.15 K, x1 = 0.1994	1158 ± 2	1048 ± 6	3.057 ± 0.24
343.15 K, x1 = 0.2993	1283 ± 3	1047.8 ± 6	4.514 ± 0.36
343.15 K, x1 = 0.3992	1378 ± 3	1052.8 ± 6.1	6.692 ± 0.54
343.15 K, x1 = 0.4985	1456 ± 3	1058.9 ± 6.1	8.831 ± 0.71
343.15 K, x1 = 0.5999	1521 ± 3	1065.1 ± 6.1	10.95 ± 0.88
343.15 K, x1 = 0.6989	1575 ± 3	1073.5 ± 6.2	14.03 ± 1.1
343.15 K, x1 = 0.7996	1623 ± 4	1081.2 ± 6.2	15.41 ± 1.2
343.15 K, x1 = 0.8973	1662 ± 4	1089.8 ± 6.3	19.94 ± 1.6
343.15 K, x1 = 1	1688 ± 4	1100.2 ± 6.3	23.59 ± 1.9
